Source: patent US20160374944A1, “COMPOSITIONS AND METHODS FOR TREATING AND PREVENTING CANCER BY TARGETING AND INHIBITING CANCER STEM CELLS” (priority 2011, published 2016)

Experiments:
Pancreatic CSCs = experiment: Transwell migration assay; format: cell-based, human; conditions: for migration: EGCG 0-60 μM with or without quercetin 20 μM, 48 hrs
Method: (A) Pancreatic CSCs were treated with EGCG (0-60 μM) for 48 h. At the end of incubation period, the expression of Snail, ZEB1 and Slug was measured by q-RT-PCR. […] (B) Transwell migration assay. Pancreatic CSCs were plated in the top chamber of the transwell and treated with EGCG (0-60 μM) for 24 h. Cells migrated to the lower chambered were fixed with methanol, stained with crystal violet and counted. […] (C) Matrigel invasion assay. CSCs were plated onto the Matrigel-coated membrane in the top chamber of the transwell and treated with EGCG (0-60 μM) for 48 h. Cells invaded to the lower chambered were fixed with methanol, stained with crystal violet and counted. […] (D) Effects of EGCG on TCF-1/LEF activity. Pancreatic CSCs were transduced with TCF/LEF responsive GFP/firefly luciferase viral particles (pGreen Fire1-Gli with EF1, System Biosciences). Transduced CSCs were treated with EGCG (0-60) for 48 h and the GFP fluorescence was measured. […] FIG. 42A and FIG. 42B show graphs showing quercetin synergizes with EGCG to inhibit self-renewal capacity, invasion, migration, and TCF/LEF and Gli transcriptional activities in pancreatic CSCs. (A) Effects of EGCG and quercetin on spheroid and colony formation. Upper Panel, uercetin synergizes with EGCG to inhibit spheroid's cell viability. CSCs were seeded in suspension and treated with EGCG (0-60 μM) with or without quercetin (20 μM) for 7 days. At the end of incubation period, all the spheroids were collected and resuspended. Cell viability was measured by trypan blue assay. […] Lower panel, uercetin synergizes with EGCG to inhibit colony formation. […] At the end of incubation period, colonies were counted. […] Cells invaded to the lower chambered were fixed with methanol, stained with crystal violet and counted. […] Cells migrated to the lower chambered were fixed with methanol, stained with crystal violet and counted. […] Apoptosis was measured by TUNEL assay. […] Transduced CSCs were treated with EGCG (40 μM) with or without quercetin (20 μM) for 48 hrs and the luciferase activity was measured.

Breast CSCs = experiment: cell viability by XTT assay; format: cell-based; conditions: 3 days
Method: Breast CSCs were seeded in 96-well plate and treated with sulforaphane, diallyl trisulphide, resveratrol and curcumin for 3 days. At the end of incubation period, CSCs were harvested and cell viability was measured by XTT assay.
Breast CSCs were seeded in 96-well plate and treated with rottlerin, EGCG, embelin, and honokiol for 3 days. At the end of incubation period, breast CSCs were harvested and cell viability was measured by XTT assay.
(A-D) Breast CSCs were treated with PITC (0-20 μM), BSC, (0-20 μM), sulforaphane (0-20 μM) and honokiol (0-10 μM) for 3 days, and cell viability was measured by XTT assay.
Breast CSCs were treated with rottlerin (0-1 μM) for 3 days, and cell viability was measured by XTT assay.
Breast CSCs were seeded in 96-well plate and treated with sulforaphane, diallyl trisulphide, resveratrol, and curcumin for 3 days and cell viability was measured by XTT assay. The results of those studies are illustrated in FIG. 29.
Breast CSCs were seeded in 96-well plate and treated with Rottlerin, EGCG, embelin, and honokiol for 3 days and cell viability was measured by XTT assay. The results of those studies are illustrated in FIG. 30.

For `O=C(O[C@@H]1Cc2c(O)cc(O)cc2O[C@@H]1c1cc(O)c(O)c(O)c1)c1cc(O)c(O)c(O)c1` [EGCG, epigallocatechin gallate], the migration (Pancreatic CSCs) was “inhibited cell viability in spheroids, colony formation, migration and invasion by CSCs in a dose-dependent manner”, the cell migration (Pancreatic CSCs; EGCG 0-60 μM, 24 h) was “inhibited” and the cell viability (Breast CSCs) was “inhibit cell viability”.

For `O=c1c(O)c(-c2ccc(O)c(O)c2)oc2cc(O)cc(O)c12` [quercetin], the migration (Pancreatic CSCs) was “effective alone”.

In the case of `CC(=O)c1c(O)c(C)c(O)c(Cc2c(O)c3c(c(C(=O)/C=C/c4ccccc4)c2O)OC(C)(C)C=C3)c1O` [rottlerin], the cell viability (Breast CSCs) is reported as “inhibits cell viability”.

For `C[S+]([O-])CCCCN=C=S` (stereo not drawn) [sulforaphane], the cell viability (Breast CSCs) was “inhibit cell viability”.
